Columns and labels:
[1] = assay type: physicochemical
Experimental: An excess amount of drug was added to aqueous solutions containing up to 20% (w/v) cyclodextrin. The solutions were sonicated at 40-50° C. for 45-60 minutes in sealed glass vials, and then allowed to cool to room temperature (22-23° C.). Small amount of solid drug was then added to each vial, the vial resealed and allowed to equilibrate under constant agitation and protected from light for 7 days at room temperature. When the solutions had reached equilibrium, they were filtered through a 0.45 μm membrane filter and analyzed by high pressure liquid chromatography. […] The complexation efficiency (CE) was determined from the slope of phase-solubility diagrams (plots of total solubility of the drug versus total CD concentration in mol/l) where S0 is the intrinsic solubility of the drug:
The mobile phase consisted of acetonitrile, methanol and water (60:20:20), the flow rate was 1 ml/min, the column oven temperature was 80° C. and the detection wavelength was 205 nm.

[2] = pure water at room temperature; cited from earlier work

Row | CE (complexation efficiency) [1] | Solubility in the presence of 5% (w/v) cyclodextrin [1] [µg/mL] | Compound | Solubility in the presence of 15% (w/v) cyclodextrin [1] [µg/mL] | Solubility of the cyclodextrin in pure water [2]
1 | 0.0011 | – | 2-Hydroxypropyl-γ-cyclodextrin | – | –
2 | 0.031 | 84 | 2-Hydroxypropyl-α-cyclodextrin | 460 | –
3 | 0.053 | 130 | Randomly methylated β-cyclodextrin | – | –
4 | 0.030 | – | OC[C@H]1O[C@@H]2O[C@H]3[C@H](O)[C@@H](O)[C@@H](O[C@H]4[C@H](O)[C@@H](O)[C@@H](O[C@H]5[C@H](O)[C@@H](O)[C@@H](O[C@H]6[C@H](O)[C@@H](O)[C@@H](O[C@H]7[C@H](O)[C@@H](O)[C@@H](O[C@H]8[C@H](O)[C@@H](O)[C@@H](O[C@H]1[C@H](O)[C@H]2O)O[C@@H]8CO)O[C@@H]7CO)O[C@@H]6CO)O[C@@H]5CO)O[C@@H]4CO)O[C@@H]3CO [β-Cyclodextrin] | – | 2 % (w/v)
5 | 0.0049 | – | OC[C@H]1O[C@@H]2O[C@H]3[C@H](O)[C@@H](O)[C@@H](O[C@H]4[C@H](O)[C@@H](O)[C@@H](O[C@H]5[C@H](O)[C@@H](O)[C@@H](O[C@H]6[C@H](O)[C@@H](O)[C@@H](O[C@H]7[C@H](O)[C@@H](O)[C@@H](O[C@H]8[C@H](O)[C@@H](O)[C@@H](O[C@H]9[C@H](O)[C@@H](O)[C@@H](O[C@H]1[C@H](O)[C@H]2O)O[C@@H]9CO)O[C@@H]8CO)O[C@@H]7CO)O[C@@H]6CO)O[C@@H]5CO)O[C@@H]4CO)O[C@@H]3CO [γ-Cyclodextrin] | – | –

Row | Compound | CE (complexation efficiency) [1] | Solubility in the presence of 5% (w/v) cyclodextrin [1] [µg/mL] | Solubility in the presence of 15% (w/v) cyclodextrin [1] [µg/mL] | Solubility of the cyclodextrin in pure water [2]
6 | OC[C@H]1O[C@@H]2O[C@H]3[C@H](O)[C@@H](O)[C@@H](O[C@H]4[C@H](O)[C@@H](O)[C@@H](O[C@H]5[C@H](O)[C@@H](O)[C@@H](O[C@H]6[C@H](O)[C@@H](O)[C@@H](O[C@H]7[C@H](O)[C@@H](O)[C@@H](O[C@H]1[C@H](O)[C@H]2O)O[C@@H]7CO)O[C@@H]6CO)O[C@@H]5CO)O[C@@H]4CO)O[C@@H]3CO [α-Cyclodextrin] | 0.54 | – | 4200 | –
